Assays:
γ-secretase [1] = biological target: T1, γ-secretase (Homo sapiens, UniProt P49768); test: Screening for γ-secretase-modulating activity: Aβtotal in supernatant of SKNBE2 cells carrying hAPP 695 wild type (Alphalisa); assay type: cell-based; details: SKNBE2 human neuroblastoma cells carrying hAPP 695 wild type, overnight incubation, Aβtotal in cell supernatant
T1 construct: endogenous in cells; host or cells: SKNBE2 human neuroblastoma cells (carrying hAPP 695 wild type as substrate)
How it was run: (§1)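 SKNBE2 neuroblastoma cells expressing wild-type hAPP 695 plated at 10^4 cells/well in Ultraculture with test compound, incubated overnight at 37° C. Aβ42 (C-terminal/N-terminal antibody pair) and Aβtotal (N-terminal/4G8 pair) in supernatant quantified by AlphaLISA. IC50 from 4-parameter fit of percent of compound-free control.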

γ-secretase [2] = biological target: T1, γ-secretase; test: Screening for γ-secretase-modulating activity: Aβ42 in supernatant of SKNBE2 cells carrying hAPP 695 wild type (Alphalisa); assay type: cell-based; details: SKNBE2 human neuroblastoma cells carrying hAPP 695 wild type, overnight incubation, Aβ42 in cell supernatant
How it was run: as §1

| Structure (SMILES) | IC50 (γ-secretase [1]) [nM] | melting point [°C] | IC50 (γ-secretase [2]) [nM] |
| --- | --- | --- | --- |
| Cc1cn(-c2ccc3n(c2=O)CCN(Cc2cccc(C4CC4)c2)C3=O)cn1 [compound 101] | > 10000 | 121.5 | 740 |
| Cc1cn(-c2ccc3n(c2=O)CCN(c2ccccc2C)C3=O)cn1 [compound 102] | > 10000 | 222.2 | > 10000 |
| Cc1cn(-c2ccc3n(c2=O)CCN(CCC2COc4ccccc4O2)C3=O)cn1 (stereo not drawn) [compound 103] | > 10000 | 176.8 | 2450 |
| Cc1cn(-c2ccc3n(c2=O)CCN(C2CCc4c2cccc4C(F)(F)F)C3=O)cn1 (stereo not drawn) [compound 105] | > 10000 | 253.5 | 2820 |
| Cc1cn(-c2ccc3n(c2=O)CCN(C2CCCc4ccc(C(F)(F)F)cc42)C3=O)cn1 (stereo not drawn) [compound 106] | > 10000 | 189.4 | 720 |
| Cc1cn(-c2ccc3n(c2=O)CCN(C2CCCc4c2cccc4C(F)(F)F)C3=O)cn1 (stereo not drawn) [compound 107] | > 10000 | 257.3 | 2450 |
| Cc1cn(-c2ccc3n(c2=O)C[C@@H](C)N(Cc2ccc4c(c2)OC(F)(F)O4)C3=O)cn1 [compound 113] | > 10000 | 136.1 | 400 |
| Cc1cn(-c2ccc3n(c2=O)C[C@@H](C)N(Cc2ccc4scc(Br)c4c2)C3=O)cn1 [compound 115] | > 10000 | 101.4 | 140 |
| COc1cccc(CN2CCn3c(ccc(-n4cnc(C)n4)c3=O)C2=O)c1 [compound 119] | > 10000 | 151.2 | > 10000 |
| Cc1ncn(-c2ccc3n(c2=O)CCN(Cc2cccc(C(F)(F)F)c2)C3=O)n1 [compound 120] | > 10000 | 194.9 | 6170 |
| Cc1cn(-c2ccc3n(c2=O)CCCN(Cc2ccc(Cl)c(Cl)c2)C3=O)cn1 [compound 121] | > 10000 | 173.4 | 380 |
| Cc1cn(-c2ccc3n(c2=O)C[C@@H](C)N(Cc2ccccc2)C3=O)cn1 [compound 124] | > 10000 | 136.5 | 2340 |
| Cc1cn(-c2ccc3n(c2=O)C[C@@H](C)N(Cc2cc(Cl)cc(Cl)c2)C3=O)cn1 [compound 131] | > 10000 | 170.7 | 200 |
| Cc1ncn(-c2ccc3n(c2=O)CC(C)N(Cc2cc(C(F)(F)F)cc(C(F)(F)F)c2)C3=O)n1 (stereo not drawn) [compound 155] | > 10000 | 160.9 | 510 |
| Cc1cn(-c2c(Br)cc3n(c2=O)C[C@@H](C)N(Cc2cc(C(F)(F)F)cc(C(F)(F)F)c2)C3=O)cn1 [compound 157] | 8710 | 147.7 | 2040 |
| Cc1cn(-c2ccc3n(c2=O)CCN(Cc2cc(OC(C)C)cc(C(F)(F)F)c2)C3=O)cn1 [compound 160] | > 10000 | 171.7 | 190 |
| Cc1cn(-c2ccc3n(c2=O)CCN(C(C)c2cc(F)cc(C(F)(F)F)c2)C3=O)cn1 (stereo not drawn) [compound 168] | > 10000 | 225.6 | 1410 |
| Cc1cn(-c2ccc3n(c2=O)CCN(C(C)Cc2cc(C(F)(F)F)cc(C(F)(F)F)c2)C3=O)cn1 (stereo not drawn) [compound 172] | > 10000 | 182.3 | 250 |

More lines, now with the values ahead:

| IC50 (γ-secretase [1]) [nM] | melting point [°C] | IC50 (γ-secretase [2]) [nM] | Structure (SMILES) |
| --- | --- | --- | --- |
| 7410 | 187 | 20 | Cc1cn(-c2ccc3n(c2=O)C[C@@H](C)N(Cc2cn(C)c4cc(F)c(Cl)cc24)C3=O)cn1 [compound 196] |
| > 10000 | 181 | 20 | Cc1cn(-c2ccc3n(c2=O)C[C@@H](C)N(Cc2cn(C(C)C)c4cc(Br)ccc24)C3=O)cn1 [compound 200] |
| > 10000 | 161 | 50 | Cc1cn(-c2ccc3n(c2=O)C[C@@H](C)N(Cc2cn(C)c4cc(C(F)(F)F)ccc24)C3=O)cn1 [compound 228] |
| > 10000 | 129 | 130 | Cc1cn(-c2ccc3n(c2=O)C[C@@H](C)N(CCc2cccc(C(F)(F)F)c2C)C3=O)cn1 [compound 229] |
| > 10000 | 192 | 210 | Cc1cn(-c2ccc3n(c2=O)C[C@@H](C)N(CCc2cc(Cl)ccc2Cl)C3=O)cn1 [compound 230] |
| > 10000 | 148 | 210 | Cc1cn(-c2ccc3n(c2=O)C[C@@H](C)N(CCc2cc(C(F)(F)F)ccc2F)C3=O)cn1 [compound 232] |
| > 10000 | 193 | 260 | COc1ccc(Cl)cc1CCN1C(=O)c2ccc(-n3cnc(C)c3)c(=O)n2C[C@H]1C [compound 233] |
| 6000 | 150 | 20 | CCn1cc(CN2C(=O)c3ccc(-n4cnc(C)c4)c(=O)n3C[C@H]2C)c2cc(OC)c(Cl)cc21 [compound 251] |
| 6000 | 217 | 20 | Cc1cn(-c2ccc3n(c2=O)CCN(Cc2cn(C)c4cc(Cl)c(Cl)cc24)C3=O)cn1 [compound 254] |
| 3000 | 265 | 10 | Cc1cn(-c2ccc3n(c2=O)C[C@@H](C)N(Cc2cn(C)c4cc(Cl)c(Cl)cc24)C3=O)cn1 [compound 255] |
| 6000 | 230 | 20 | Cc1cn(-c2ccc3n(c2=O)CCN(Cc2cn(C)c4c(Cl)cc(Cl)cc24)C3=O)cn1 [compound 259] |

Reference: US20150141411A1, “SUBSTITUTED 3,4-DIHYDRO-2H-PYRIDO[1,2-A]PYRAZINE-1,6-DIONE DERIVATIVES USEFUL FOR THE TREATMENT OF (INTER ALIA) ALZHEIMER'S DISEASE” (Janssen Pharmaceuticals, Inc., priority 2012, published 2015)
